In BindingDB's records for doi:10.1016/j.bmcl.2016.02.067 (Pfizer, 2016) one finds IC50 data, which are given here for 1 compound.

Assay [1] can be described thus: Inhibition of wild type EGFR in human NCI-H1666 cells assessed as suppression of cell proliferation.
The nature of assay [2]: Inhibition of EGFR Del ex19 mutant in human PC9 cells assessed as suppression of cell proliferation.
Assay [3] is described as follows: Inhibition of EGFR Del ex19/T790M double mutant in human PC9 cells assessed as suppression of cell proliferation.
Assay [4] can be described thus: Inhibition of EGFR Del ex19 mutant in human HCC827 cells assessed as suppression of cell proliferation.
Assay [5] in a line: Inhibition of EGFR L858R/T790M double mutant in human NCI-H1975 cells assessed as suppression of cell proliferation.

As for `C=CC(=O)N1CC[C@@H](Oc2nc(Nc3ccc(N4CCC(N5CCN(C)CC5)CC4)cc3)c(C(N)=O)nc2CC)C1` [US9085540, 54], the IC50 in assay [1] is 230 nM; in assay [2] it was 8 nM; in assay [3] it was 8 nM; in assay [4], 8 nM; in assay [5] it was 8 nM.

The term IC50 denotes the concentration at which inhibition is half-maximal.
